# Experimental data taken from PubChem BioAssay AID2305 (GlaxoSmithKline (GSK), 2010).
# Tested on: P. falciparum 3D7 growth, pLDH absorbance
# Assay: blood-stage malaria parasite growth potency – strain 3D7, dose response (AID 2305)
row,SMILES,IC50 [µM]
1,CCCCNc1nccc2ccc(-c3ccncc3)cc12,0.77
2,CCNCCCC(C)Nc1ccnc2cc(Cl)ccc12 (configuration not stated),0.2
3,Oc1ccc2[nH]cc(C3CCN(CCCNCc4ccc(-c5ccccc5)cc4)CC3)c2c1,0.72
4,CN(C)c1ccc(CN2CCCCC(NC(=O)c3cc(-c4ccccc4Cl)cs3)C2)cc1 (configuration not stated),1.06
5,CC(=O)N(Cc1ccccc1-c1cccc(CNCc2ccc3c(c2)OCO3)c1)C1CCN(Cc2ccccc2)CC1,1.05
6,CS(=O)(=O)Nc1cccc(-c2cnc3[nH]cc(-c4ccc(CN)cc4)c3c2)c1,0.99
7,COc1cc2c(cc1S(=O)(=O)c1ccc(NC(=O)c3ccc4ccccc4c3)cc1)CCN(C)CC2,0.8
8,N#Cc1ccc(NC(=NC2Cc3ccccc3C2)Nc2cccc(Cl)c2Cl)c(O)c1,0.83
9,Cc1ccc(-n2c(Cc3cccc4ccccc34)nnc2SCCC#N)c(C)c1,0.46
10,O=C(/C=C/c1ccccc1Cl)NC1CCC(CN2CCC(c3c[nH]c4ccncc34)CC2)CC1 (configuration not stated),0.33
11,COc1ccc2nccc([C@H](O)CN3CCC(NCc4nc5c(F)cccc5[nH]4)CC3)c2c1,0.71
12,C=C1C[C@@H](n2cnc3c(NC(=O)c4ccccc4)ncnc32)[C@@H](F)[C@@H]1OC(c1ccccc1)(c1ccccc1)c1ccccc1,0.14
13,Cc1ccc2nc(C)cc(NC(=O)Nc3ccc(N(C)C)cc3)c2c1,0.54
14,O=C(Nc1ccc(Cl)cc1)c1cc(Cl)cc2[nH]c(C(F)(F)F)nc12,0.13
15,CC(C)CCNC(=O)c1cnc2c(O)cccc2c1Nc1cccc(NC(=O)c2ccc(F)cc2)c1,0.91
16,CC(O)C1CCCCN1C(=O)c1cccc(-c2cccc(-c3nc4ccccc4[nH]3)c2)c1 (configuration not stated),0.53
17,CCCCN1CCN(CC(O)CNC(=O)Nc2ccc(Cl)cc2)CC1 (configuration not stated),0.07
18,CC1CCCCC1N(C)C1CCN(CCCNC(=O)C=Cc2cccc(C(F)(F)F)c2)CC1 (configuration not stated),0.77
19,Oc1c(C=Nn2cnnc2)sc2ccccc12,0.91
20,c1cc(CNCC2CCN(CC3CCCCC3)CC2)cc(-n2ccnc2)c1,0.54
21,CNc1nc(NN=Cc2cc([N+](=O)[O-])c(Cl)cc2Cl)nc(Nc2cccc(C(F)(F)F)c2)n1,0.73
22,COc1cc2c(cc1N(C(C)C)S(=O)(=O)c1sc3ccc(Cl)cc3c1C)CCNCC2,1.05
23,Cc1cccc2[nH]c(-c3ccc(-c4ccc(CN5CCC(C(N)=O)CC5)cc4)cc3)nc12,0.93
24,COc1ccc2c(NN=Cc3ccccc3Cl)cc(C)nc2c1,0.37

row,SMILES,IC50 [µM]
1,CCN1CCCC(Nc2ccnc3cc4ccccc4cc23)C1 (configuration not stated),0.1
2,NS(=O)(=O)c1ccccc1Nc1nc(Nc2ccc(N3CCOCC3)cc2)nc2c1CCC2,0.67
3,O=C(Nc1cccc(-c2ccc(-c3nc4ccccc4[nH]3)cc2)c1)c1ccncc1,0.53
4,O=C(Nc1ccc(Cl)c(-c2nc3ccccc3[nH]2)c1)c1ccc(-c2ccc(Cl)cc2)o1,0.79
5,COc1cccc(NC(=O)c2ccc(NCCCN3CC(C)CC(C)C3)c([N+](=O)[O-])c2)c1 (configuration not stated),0.72
6,O=C(Nc1cccc(CN2CCCN(Cc3cccc(O)c3)CC2)c1)c1ccc(-c2ccccc2)cc1,0.64
7,O=[N+]([O-])c1ccc2c(c1)c1ccccc1n2Cc1ccccc1O,1.11
8,COc1ccc(NC(=O)CCNc2cc(C)nc(Nc3ccccc3)n2)cc1,1.1
9,N#Cc1ccc(N(CCOc2ccc(Cl)c(Cl)c2)Cc2ccccc2C(F)(F)F)cc1C(F)(F)F,1.11
10,Cc1ccc(Oc2cnn(C)c(=O)c2Nc2cccc(C(=O)NCCc3ccccn3)c2)c(C)c1,0.49
11,COC(=O)c1cccc(NC(=O)NC2CCN(c3ccnc(Nc4cc(OC)c(OC)c(OC)c4)n3)C2)c1 (configuration not stated),0.51
12,FC(F)(F)c1ccc2c(NCCNc3ccnc4cc(C(F)(F)F)ccc34)ccnc2c1,0.03
13,O=S1(=O)NC2(CCN(CCc3ccc(Cl)cc3)CC2)Nc2cc(F)cc(F)c21,1.46
14,O=C(N[C@H]1CCN(Cc2ccc(OCCN3CCCC3)c(Cl)c2)C1)c1ccc(Cl)c(Cl)c1,0.92
15,COc1cccc2c(NN=Cc3cccc(F)c3)ccnc12,0.93
16,O=C(Nc1ccc(C(=O)N(Cc2ccc3c(c2)OCO3)C2CCCC2)cc1)c1cccs1,0.65
17,COc1cccc(OC)c1OCCCOc1c(C)nc(N)nc1N,0.46
18,CC(C)(C)NS(=O)(=O)c1cc(C(=O)N2CCC(CCN3CCC(O)(c4cccc(C(F)(F)F)c4)CC3)(c3cccc(F)c3)CC2)c(Cl)cc1F,0.86
19,COc1cc(NCCCNC(=O)c2cn(Cc3ccccc3)c3ccccc23)nc2ccccc12,0.87
20,CC(=O)Nc1nc(C(=O)Nc2cccc(-c3cccc(-c4nc5ccccc5[nH]4)c3)c2)cs1,0.17
21,CC(=O)Nc1ccc(CN2CCC(NC(=O)c3ccc(-c4ccc(N(C)C)cc4)s3)CC2)cc1,0.87
22,CN1CCC(N2CCN(Cc3ccc(-c4ccc(-c5nc6ccccc6[nH]5)s4)cc3)CC2)CC1,0.14
23,N#Cc1ccc(-c2ccc(C(=O)Nc3ccc4c(c3)CCN(C3CCC3)CC4)nc2)cc1,0.7
24,Nc1nc(N)c2c(ccc3c2ccn3C2CCCCC2)n1,0.12

row,SMILES,IC50 [µM]
1,CCCCn1c(-c2ccco2)nc2c(c(=O)c3ccccc3n2C)c1=O,1.24
2,CCCC1N=C(N)N=C(N)N1c1cccc([N+](=O)[O-])c1 (configuration not stated),0.76
3,Cc1cccc(NC(=O)N(Cc2cc3cc(C)cc(C)c3[nH]c2=O)C2CC2)c1,0.34
4,COc1ccccc1-n1ccnc1SCC(=O)Nc1cc(C(F)(F)F)ccc1Cl,0.01
5,COc1ccccc1N1CCN(Cc2c(O)ccc3cc(Br)ccc23)CC1,1.15
6,Oc1cccc(C2CCCN(CCc3c[nH]c4ccccc34)C2)c1 (configuration not stated),0.86
7,O=[N+]([O-])c1ccc2nc(Nc3ccc(Cl)c(Cl)c3)c(Nc3ccc(Cl)c(Cl)c3)nc2c1,0.79
8,CC(C)N1CCC(NC(=O)N2CCCN(c3ncnc4cc(-c5ccccc5)sc34)CC2)CC1,0.86
9,COc1ccc(CCC(C)N2C[C@@H](N)[C@H](c3cn(C)c4cnccc34)C2)cc1 (some centres not stated),1.36
10,O=C(C=Cc1cn(-c2ccccc2)nc1-c1ccccc1)N1CCN(c2ccncc2)CC1,0.96
11,COc1cc2c(cc1N1CCN(C)CC1)N(C(=O)Nc1ccc(-c3ccncc3)c(Cl)c1Cl)CC2,0.61
12,O=C(NC1CCC(CN2CCC(c3c[nH]c4ccccc34)CC2)CC1)c1cc(-c2ccccc2)c(C(F)(F)F)s1 (configuration not stated),0.17
13,Cc1ccccc1NC1=NC(=S)N(c2cccc(C(F)(F)F)c2)C12CCC(C(C)(C)C)CC2 (configuration not stated),0.97
14,CCc1cccc(OCC2CCCN(c3ccc(C(=O)NC4CC4)cn3)C2)c1 (configuration not stated),1.44
15,CCCCCC(C)NC[C@@H](O)[C@H](Cc1ccccc1)NC(=O)c1cc(NCC)cc(N2CCCCS2(=O)=O)c1 (some centres not stated),0.4
16,CCN(CC)CCCN(CCCN(CC)CC)c1cc(C)nc(Nc2ccc(Cl)cc2)n1,0.21
17,CCN(CCCN1CCCCC1)c1nc(C)cc(Nc2ccc(Cl)cc2)n1,0.84
18,Cc1cc(N2CCOCC2)nc2ccc(NC(=O)c3ccc(Cl)c([N+](=O)[O-])c3)cc12,1.03
19,Cc1ccccc1C1CCN(C2CCC(NC(=O)/C=C/c3cccc(C(F)(F)F)c3)CC2)CC1 (configuration not stated),1.52
20,COc1ccc(-c2ccc(NC(=O)c3cccc(C#N)c3)cc2)cc1CN1CCCC(C(N)=O)C1 (configuration not stated),0.86
21,CCOC(=O)c1sc(C(C)Nc2ccccc2)nc1-c1ccccc1 (configuration not stated),0.33
22,Cc1cc(C(=O)CSc2nc3ccccc3n2-c2ccccc2)c(C)n1C1CCS(=O)(=O)C1 (configuration not stated),1
23,COc1ccccc1CC(C)NCC(O)c1cccc(Cl)c1 (configuration not stated),0.81
24,O=C(NC1CCN(c2ccnc3cc(Cl)ccc23)C1)c1ccc(F)cc1F (configuration not stated),0.37
